From patent US9993494B2, “Compositions and methods for treating fibrotic disease” (eFFECTOR Therapeutics, Inc., priority 2014, dated 2018)

System: normal human lung fibroblasts
Assay: Ribosomal profiling: translational efficiency in TGFβ-treated fibroblasts
Type: cell-based
Details: TGFβ-treated fibroblasts
Procedure: Ribosomal profiling allows for measurement of changes in transcription and translation on a genome-wide basis accompanying TGFβ-dependent transformation of fibroblasts to myofibroblasts. Ribosomal profiles of the TGFβ-treated fibroblasts from Example 1 (about 6×10^6 cells/10 cm plate) were prepared and analyzed for changes in translational efficiencies with respect to potential disease-associated cellular changes accompanying this TGFβ-induced transformation.
Briefly, cells were washed with cold PBS supplemented with cycloheximide and lysed with 1× mammalian cell lysis buffer for 10 minutes on ice. Lysates were clarified by centrifugation for 10 minutes at 14,000 rpm and supernatants were collected. Cell lysates were processed to generate ribosomal protected fragments and total mRNA according to the instructions included with the ARTseq Ribosome Profiling Kit (Illumina, San Diego, Calif.). Sequencing of total RNA (RNA) and of ribosome-protected fragments of RNA (RPF) was carried out using RNA-Seq methodology according to the manufacturer's instructions (Illumina). To analyze the ribosomal profiles, RNA-Seq reads were processed with tools from the FASTX-Toolkit (fastq_quality_trimmer, fastx_clipper and fastx_trimmer). Unprocessed and processed reads were evaluated for a variety of quality measures using FastQC, and processed reads were mapped to the human genome using TopHat (see, e.g., Trapnell et al., Bioinformatics 25:1105, 2009). Gene-by-gene assessment of the number of fragments strictly and uniquely mapping to the coding region of each gene was conducted using HTSeq-count, a component of the HTSeq package. […] Genes with low counts in either RPF or RNA were excluded from differential analyses. Pathway and network analyses of differential data were conducted using Ingenuity Pathway Analysis (IPA).

Compound: COC(=O)[C@H]1[C@@H](O)[C@@]2(O)c3c(OC)cc(O[C@@H]4O[C@@H]([C@H](O)CO)CO[C@H]4OC)cc3O[C@@]2(c2ccc(OC)cc2)[C@@H]1c1ccccc1 [Silvestrol]
- effect in renormalizing the translational profile of the gene (gene RPS6KA5 (ENSG00000100784)): + (+ = 0.9 to 1.5)
- effect in renormalizing the translational profile of the gene (gene RPS7 (ENSG00000171863)): − (− = <0.9)
- effect in renormalizing the translational profile of the gene (gene RPS8 (ENSG00000142937)): − (− = <0.9)
- effect in renormalizing the translational profile of the gene (gene RPS9 (ENSG00000170889)): − (− = <0.9)
- effect in renormalizing the translational profile of the gene (gene RPS10 (ENSG00000124614)): − (− = <0.9)
- effect in renormalizing the translational profile of the gene (gene RPS11 (ENSG00000142534)): − (− = <0.9)
- effect in renormalizing the translational profile of the gene (gene RPS12 (ENSG00000112306)): − (− = <0.9)
- effect in renormalizing the translational profile of the gene (gene RPS13 (ENSG00000110700)): − (− = <0.9)
- effect in renormalizing the translational profile of the gene (gene RPS14 (ENSG00000164587)): − (− = <0.9)
- effect in renormalizing the translational profile of the gene (gene RPS15 (ENSG00000115268)): − (− = <0.9)
- effect in renormalizing the translational profile of the gene (gene RPS15A (ENSG00000134419)): − (− = <0.9)
- effect in renormalizing the translational profile of the gene (gene RPS16 (ENSG00000105193)): − (− = <0.9)
- effect in renormalizing the translational profile of the gene (gene RPS18 (ENSG00000231500)): − (− = <0.9)
- effect in renormalizing the translational profile of the gene (gene RPS19 (ENSG00000105372)): − (− = <0.9)
- effect in renormalizing the translational profile of the gene (gene RPS20 (ENSG00000008988)): − (− = <0.9)
- effect in renormalizing the translational profile of the gene (gene RPS21 (ENSG00000171858)): − (− = <0.9)
- effect in renormalizing the translational profile of the gene (gene RPS23 (ENSG00000186468)): − (− = <0.9)
- effect in renormalizing the translational profile of the gene (gene RPS24 (ENSG00000138326)): − (− = <0.9)
- effect in renormalizing the translational profile of the gene (gene RPS25 (ENSG00000118181)): − (− = <0.9)
- effect in renormalizing the translational profile of the gene (gene RPS26 (ENSG00000197728)): − (− = <0.9)
- effect in renormalizing the translational profile of the gene (gene RPS27 (ENSG00000177954)): − (− = <0.9)
- effect in renormalizing the translational profile of the gene (gene RPS27A (ENSG00000143947)): − (− = <0.9)
- effect in renormalizing the translational profile of the gene (gene RPS28 (ENSG00000233927)): − (− = <0.9)
- effect in renormalizing the translational profile of the gene (gene RPS29 (ENSG00000213741)): − (− = <0.9)
- effect in renormalizing the translational profile of the gene (gene RPSA (ENSG00000168028)): − (− = <0.9)
- effect in renormalizing the translational profile of the gene (gene RTN2 (ENSG00000125744)): − (− = <0.9)
- effect in renormalizing the translational profile of the gene (gene SEMA3A (ENSG00000075213)): − (− = <0.9)
- effect in renormalizing the translational profile of the gene (gene SGIP1 (ENSG00000118473)): + (+ = 0.9 to 1.5)
- effect in renormalizing the translational profile of the gene (gene SHC3 (ENSG00000148082)): − (− = <0.9)
- effect in renormalizing the translational profile of the gene (gene SLC2A12 (ENSG00000146411)): ++ (++ = 1.5 to 2.0)
- effect in renormalizing the translational profile of the gene (gene SLC7A7 (ENSG00000155465)): − (− = <0.9)
- effect in renormalizing the translational profile of the gene (gene SLC15A3 (ENSG00000110446)): − (− = <0.9)
- effect in renormalizing the translational profile of the gene (gene SLC25A6 (ENSG00000169100)): − (− = <0.9)
- effect in renormalizing the translational profile of the gene (gene SLC40A1 (ENSG00000138449)): − (− = <0.9)
- effect in renormalizing the translational profile of the gene (gene SMO (ENSG00000128602)): − (− = <0.9)
- effect in renormalizing the translational profile of the gene (gene SNRPA (ENSG00000077312)): + (+ = 0.9 to 1.5)
- effect in renormalizing the translational profile of the gene (gene SOX5 (ENSG00000134532)): − (− = <0.9)
- effect in renormalizing the translational profile of the gene (gene SOX6 (ENSG00000110693)): − (− = <0.9)
- effect in renormalizing the translational profile of the gene (gene SPATA6 (ENSG00000132122)): − (− = <0.9)
- effect in renormalizing the translational profile of the gene (gene STAMBPL1 (ENSG00000138134)): + (+ = 0.9 to 1.5)
- effect in renormalizing the translational profile of the gene (gene STS (ENSG00000101846)): − (− = <0.9)
- effect in renormalizing the translational profile of the gene (gene SYNE2 (ENSG00000054654)): − (− = <0.9)
- effect in renormalizing the translational profile of the gene (gene TAF1D (ENSG00000166012)): − (− = <0.9)
- effect in renormalizing the translational profile of the gene (gene TDG (ENSG00000139372)): − (− = <0.9)
- effect in renormalizing the translational profile of the gene (gene TEN1 (ENSG00000257949)): + (+ = 0.9 to 1.5)
- effect in renormalizing the translational profile of the gene (gene TET2 (ENSG00000168769)): − (− = <0.9)
- effect in renormalizing the translational profile of the gene (gene TET3 (ENSG00000187605)): − (− = <0.9)
- effect in renormalizing the translational profile of the gene (gene TGFBI (ENSG00000120708)): − (− = <0.9)
- effect in renormalizing the translational profile of the gene (gene THBS3 (ENSG00000169231)): + (+ = 0.9 to 1.5)
- effect in renormalizing the translational profile of the gene (gene THG1L (ENSG00000113272)): − (− = <0.9)
- effect in renormalizing the translational profile of the gene (gene TIMM9 (ENSG00000100575)): − (− = <0.9)
- effect in renormalizing the translational profile of the gene (gene TKT (ENSG00000163931)): − (− = <0.9)
- effect in renormalizing the translational profile of the gene (gene TMTC1 (ENSG00000133687)): +++ (+++ = >2.0)
- effect in renormalizing the translational profile of the gene (gene TOMM7 (ENSG00000196683)): − (− = <0.9)
- effect in renormalizing the translational profile of the gene (gene TOP2A (ENSG00000131747)): +++ (+++ = >2.0)
- effect in renormalizing the translational profile of the gene (gene TPGS1 (ENSG00000141933)): − (− = <0.9)
- effect in renormalizing the translational profile of the gene (gene TPM2 (ENSG00000198467)): − (− = <0.9)
- effect in renormalizing the translational profile of the gene (gene TPT1 (ENSG00000133112)): − (− = <0.9)
- effect in renormalizing the translational profile of the gene (gene TRERF1 (ENSG00000124496)): + (+ = 0.9 to 1.5)
- effect in renormalizing the translational profile of the gene (gene UBA52 (ENSG00000221983)): − (− = <0.9)
- effect in renormalizing the translational profile of the gene (gene UQCRB (ENSG00000156467)): − (− = <0.9)
- effect in renormalizing the translational profile of the gene (gene UTRN (ENSG00000152818)): − (− = <0.9)
- effect in renormalizing the translational profile of the gene (gene VIM (ENSG00000026025)): − (− = <0.9)
- effect in renormalizing the translational profile of the gene (gene ZNF581 (ENSG00000171425)): − (− = <0.9)
- effect in renormalizing the translational profile of the gene (gene ZNF608 (ENSG00000168916)): − (− = <0.9)
